Results as given in patent US12171728B2, “Mixture of resveratrol supported on metal hydroxide and non-supported pure resveratrol for treating female fertility” (priority 2018, dated 2024).

Tests used:
[1] = Pharmacokinetics in humans of resveratrol formulations (plasma profile of total resveratrol); type: in vivo, human; conditions: voluntary subjects, 180 mg
Experimental: FIG. 1. Plasma profile of total resveratrol (free resveratrol+its metabolites) following the administration to voluntary subjects of a single dose of resveratrol of 180 mg […]® (circles), from pure resveratrol not supported (squares) and a simulation of the combination of resveratrol from […]® and pure resveratrol not supported in the ratio 1:2 (triangles).
The pharmacokinetics in humans of different types of resveratrol formulations. The administration of 180 mg Resveratrol supported on magnesium hydroxide ([…]®) in voluntary subjects leads to a transient increase in total concentration (free resveratrol+resveratrol metabolites) plasmatic resveratrol with Time at the peak concentration of 30 minutes from administration, followed by a decay of about 40% in the period up to 180 minutes from administration.

female fertility = assay: Case reports of fertility enhancement in infertile/sub-fertile women; type: in vivo, human
Source text: A person is […] and is classified as infertile since has tried to conceive for more than 12 months without the initiation of a state of pregnancy. They are not affected by polycystic ovary syndrome according to the Rotterdam criteria.
The patient, a person classified as being sub-fertile because they have been trying to conceive for more than 12 months unsuccessfully. They are not affected by metabolic disorders such as polycystic ovary syndrome according to the Rotterdam criteria.
A person is […] and is classified as a sub-fertile because they have been trying to conceive for more than 12 months without starting a state of pregnancy. It is not affected by metabolic disorders such as polycystic ovary syndrome according to the Rotterdam criteria.

In the case of `Oc1ccc(C=Cc2cc(O)cc(O)c2)cc1` [pure resveratrol, resveratrol], the “Total plasma concentration of resveratrol compared with REVIFAST” value [1] is reported as “absolute lesser value”, the Pregnancy outcome (female fertility; case n1, infertile, 100 mg per day for 3 months) is reported as “without having a pregnancy” and the Pregnancy outcome (female fertility; case n1, dosage doubled to 200 mg) is reported as “has not changed its situation”.
